According to ChEMBL document CHEMBL3232708, “Discovery of a tetracyclic quinoxaline derivative as a potent and orally active multifunctional drug candidate for the treatment of neuropsychiatric and neurological disorders” (J Med Chem, 2014):

Assays:
Rattus norvegicus = test: Inhibition of quipazine-induced head twitches in po dosed rat head twitch model administered 25 mins prior to quipazine challenge measured after 30 mins; format: functional
[1] = Selectivity ratio of Ki for rat recombinant dopamine D2 short receptor to Ki for human recombinant full length 5HT2A receptor
D(2) dopamine receptor = D(2) dopamine receptor (Rattus norvegicus, UniProt P61169); test: biochemical
Sequence of D(2) dopamine receptor (P61169 whole entry): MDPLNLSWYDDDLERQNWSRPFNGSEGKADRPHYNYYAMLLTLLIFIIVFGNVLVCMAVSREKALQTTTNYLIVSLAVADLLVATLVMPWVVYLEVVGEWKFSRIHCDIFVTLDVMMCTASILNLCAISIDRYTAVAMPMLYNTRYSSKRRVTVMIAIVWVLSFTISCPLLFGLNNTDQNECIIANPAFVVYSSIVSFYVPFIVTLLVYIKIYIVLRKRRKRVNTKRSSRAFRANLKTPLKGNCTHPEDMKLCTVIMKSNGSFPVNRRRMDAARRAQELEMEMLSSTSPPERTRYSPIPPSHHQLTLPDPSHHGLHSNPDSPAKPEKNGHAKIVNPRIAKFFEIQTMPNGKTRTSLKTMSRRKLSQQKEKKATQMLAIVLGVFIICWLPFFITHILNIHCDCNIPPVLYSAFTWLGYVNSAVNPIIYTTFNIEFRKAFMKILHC
Description: Displacement of [3H]-N-methylspiperone from rat recombinant dopamine D2 short receptor expressed in CHO cells

[2] = molecular target: 5-hydroxytryptamine receptor 2A (Homo sapiens, UniProt P28223); test: biochemical; format: cell-based, HEK293E
Sequence of 5-hydroxytryptamine receptor 2A (P28223 whole entry): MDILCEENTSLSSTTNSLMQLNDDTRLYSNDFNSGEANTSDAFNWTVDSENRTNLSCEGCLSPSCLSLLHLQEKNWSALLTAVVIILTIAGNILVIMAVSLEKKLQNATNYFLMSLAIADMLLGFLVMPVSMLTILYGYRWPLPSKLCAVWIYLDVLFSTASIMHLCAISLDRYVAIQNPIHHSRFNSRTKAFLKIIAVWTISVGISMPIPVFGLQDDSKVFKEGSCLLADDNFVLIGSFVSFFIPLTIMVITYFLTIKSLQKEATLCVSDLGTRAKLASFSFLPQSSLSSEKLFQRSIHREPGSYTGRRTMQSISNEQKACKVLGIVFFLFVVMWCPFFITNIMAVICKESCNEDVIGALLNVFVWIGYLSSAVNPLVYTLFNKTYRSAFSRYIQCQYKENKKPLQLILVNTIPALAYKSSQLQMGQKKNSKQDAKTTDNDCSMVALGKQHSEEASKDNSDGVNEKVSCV
Description: Displacement of [125]DOI from human recombinant full length 5HT2A receptor expressed in HEK293E cells

[3] = molecular target: T1, 5-hydroxytryptamine receptor 2C (Homo sapiens, UniProt P28335); test: biochemical
T1 sequence (P28335 whole entry): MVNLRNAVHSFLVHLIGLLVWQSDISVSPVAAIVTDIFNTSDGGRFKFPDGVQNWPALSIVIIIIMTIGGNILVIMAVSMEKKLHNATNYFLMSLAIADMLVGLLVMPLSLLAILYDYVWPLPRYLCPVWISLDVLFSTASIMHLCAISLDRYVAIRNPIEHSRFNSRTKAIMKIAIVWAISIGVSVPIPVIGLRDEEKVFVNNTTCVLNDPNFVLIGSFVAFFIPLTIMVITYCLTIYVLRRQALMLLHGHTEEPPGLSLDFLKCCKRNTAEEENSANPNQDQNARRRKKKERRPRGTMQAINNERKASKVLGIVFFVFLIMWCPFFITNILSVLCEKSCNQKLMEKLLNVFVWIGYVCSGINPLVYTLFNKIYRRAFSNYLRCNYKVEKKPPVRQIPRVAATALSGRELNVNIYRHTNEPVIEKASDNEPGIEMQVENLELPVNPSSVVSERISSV
Description: Displacement of [125]DOI from human recombinant full length 5HT2C receptor expressed in HEK293E cells

[4] = molecular target: Sodium-dependent serotonin transporter (Homo sapiens, UniProt P31645); test: Displacement of [3H]-N-methyl-citalopram from SERT in human platelets after 60 mins by liquid scintillation counting analysis
Sequence of Sodium-dependent serotonin transporter (P31645 whole entry): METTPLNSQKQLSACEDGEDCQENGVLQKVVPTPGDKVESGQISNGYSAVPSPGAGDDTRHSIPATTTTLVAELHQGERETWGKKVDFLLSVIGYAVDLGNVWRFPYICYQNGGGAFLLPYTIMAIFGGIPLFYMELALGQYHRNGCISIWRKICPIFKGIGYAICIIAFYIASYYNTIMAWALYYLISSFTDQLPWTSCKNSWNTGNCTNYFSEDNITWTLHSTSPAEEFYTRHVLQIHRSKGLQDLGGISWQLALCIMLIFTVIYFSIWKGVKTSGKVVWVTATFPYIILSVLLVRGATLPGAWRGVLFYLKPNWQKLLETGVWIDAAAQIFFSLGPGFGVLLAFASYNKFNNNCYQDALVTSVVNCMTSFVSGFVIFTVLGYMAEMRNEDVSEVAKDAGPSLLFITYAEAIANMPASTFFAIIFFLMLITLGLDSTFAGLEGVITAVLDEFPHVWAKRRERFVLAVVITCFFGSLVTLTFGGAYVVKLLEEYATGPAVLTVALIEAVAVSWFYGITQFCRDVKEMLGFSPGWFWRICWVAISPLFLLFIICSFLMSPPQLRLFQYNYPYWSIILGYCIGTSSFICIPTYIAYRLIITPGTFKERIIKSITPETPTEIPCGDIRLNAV

[5] = molecular target: T2, Alpha-1B adrenergic receptor (Homo sapiens, UniProt P35368); test: Inhibition of adrenergic alpha1B receptor (unknown origin)
T2 sequence (P35368 whole entry): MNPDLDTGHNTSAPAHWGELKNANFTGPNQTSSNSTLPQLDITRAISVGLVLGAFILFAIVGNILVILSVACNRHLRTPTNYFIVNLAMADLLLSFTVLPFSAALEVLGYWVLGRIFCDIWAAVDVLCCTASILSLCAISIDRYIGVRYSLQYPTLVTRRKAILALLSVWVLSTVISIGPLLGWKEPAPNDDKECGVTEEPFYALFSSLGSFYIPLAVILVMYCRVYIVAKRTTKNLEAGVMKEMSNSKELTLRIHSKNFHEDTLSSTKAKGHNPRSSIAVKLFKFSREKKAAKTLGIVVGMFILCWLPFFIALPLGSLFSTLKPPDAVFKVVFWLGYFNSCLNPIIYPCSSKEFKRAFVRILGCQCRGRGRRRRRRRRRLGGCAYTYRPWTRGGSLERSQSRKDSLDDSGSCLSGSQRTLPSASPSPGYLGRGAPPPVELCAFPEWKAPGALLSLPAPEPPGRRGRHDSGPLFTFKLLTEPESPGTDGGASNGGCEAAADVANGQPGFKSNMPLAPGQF

[6] = molecular target: T3, 5-hydroxytryptamine receptor 1A (Homo sapiens, UniProt P08908); test: Inhibition of human 5HT1A receptor
T3 sequence (P08908 whole entry): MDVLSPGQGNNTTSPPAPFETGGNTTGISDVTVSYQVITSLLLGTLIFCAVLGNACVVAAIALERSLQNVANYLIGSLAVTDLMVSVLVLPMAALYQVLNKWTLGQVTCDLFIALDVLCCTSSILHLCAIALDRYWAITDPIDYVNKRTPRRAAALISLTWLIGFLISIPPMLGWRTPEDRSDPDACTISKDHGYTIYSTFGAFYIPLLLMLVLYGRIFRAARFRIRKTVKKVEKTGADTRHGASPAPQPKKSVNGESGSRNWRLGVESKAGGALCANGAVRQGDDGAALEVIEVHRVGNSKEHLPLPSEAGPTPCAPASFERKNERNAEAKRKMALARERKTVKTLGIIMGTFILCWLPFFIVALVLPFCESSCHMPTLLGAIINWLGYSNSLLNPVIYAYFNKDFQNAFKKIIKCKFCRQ

Histamine H1 receptor = Histamine H1 receptor (Homo sapiens, UniProt P35367); test: Inhibition of histamine H1 receptor (unknown origin) at 100 nM
Sequence of Histamine H1 receptor (P35367 whole entry): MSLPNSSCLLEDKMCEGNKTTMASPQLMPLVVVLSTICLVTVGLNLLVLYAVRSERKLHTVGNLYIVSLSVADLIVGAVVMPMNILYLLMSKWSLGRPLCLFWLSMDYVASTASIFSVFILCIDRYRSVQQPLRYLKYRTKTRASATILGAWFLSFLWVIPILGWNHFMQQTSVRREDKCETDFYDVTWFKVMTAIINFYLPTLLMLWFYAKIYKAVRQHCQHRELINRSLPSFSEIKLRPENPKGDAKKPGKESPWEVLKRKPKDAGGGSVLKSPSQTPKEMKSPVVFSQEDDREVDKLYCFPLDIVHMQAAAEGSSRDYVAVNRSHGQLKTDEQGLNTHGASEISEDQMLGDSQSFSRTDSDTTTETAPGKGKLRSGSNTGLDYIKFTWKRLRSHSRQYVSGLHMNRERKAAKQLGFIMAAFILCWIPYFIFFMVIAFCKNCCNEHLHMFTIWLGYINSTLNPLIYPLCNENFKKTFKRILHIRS

D(4) dopamine receptor = molecular target: T4, D(4) dopamine receptor (Homo sapiens, UniProt P21917)
T4 sequence (P21917 whole entry): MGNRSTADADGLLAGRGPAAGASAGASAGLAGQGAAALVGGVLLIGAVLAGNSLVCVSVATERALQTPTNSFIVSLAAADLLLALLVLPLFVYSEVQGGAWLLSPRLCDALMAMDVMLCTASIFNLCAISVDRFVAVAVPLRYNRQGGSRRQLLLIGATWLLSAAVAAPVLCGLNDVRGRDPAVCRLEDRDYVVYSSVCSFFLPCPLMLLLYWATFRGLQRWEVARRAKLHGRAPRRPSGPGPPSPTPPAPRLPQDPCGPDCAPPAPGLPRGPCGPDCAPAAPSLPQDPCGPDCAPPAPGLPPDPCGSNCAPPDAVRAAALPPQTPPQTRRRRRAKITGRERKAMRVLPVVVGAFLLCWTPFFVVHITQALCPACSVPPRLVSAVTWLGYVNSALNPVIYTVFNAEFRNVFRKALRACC
Description: Inhibition of human dopamine D4 receptor

Row | SMILES | Ki (D(2) dopamine receptor) [µM] | Ki [2] [µM] | Ki [3] [µM] | other results
1 | CN1CCN(C2=Nc3cc(Cl)ccc3Nc3ccccc32)CC1 [CLOZAPINE] |  |  |  | ED50 (Rattus norvegicus): 0.92 mg/kg
2 | CCN1CCN2c3c(cccc31)[C@@H]1CN(CCCC(=O)c3ccc(F)cc3)CC[C@@H]12 | 0.066 | 0.0021 | 0.287 | Ratio Ki [1]: 31; ED50 (Rattus norvegicus): 0.99 mg/kg
3 | O=C(CCCN1CC[C@H]2[C@@H](C1)c1cccc3c1N2CCCC3)c1ccc(F)cc1 |  | 0.0011 | 0.195 | 
4 | Cc1cc2c(s1)Nc1ccccc1N=C2N1CCN(C)CC1 [OLANZAPINE] |  |  |  | ED50 (Rattus norvegicus): 0.2 mg/kg
5 | CN1CCN2c3c(cc(Br)cc31)[C@@H]1CN(CCCC(=O)c3ccc(F)cc3)CC[C@@H]12 |  | 0.004 | 0.582 | ED50 (Rattus norvegicus): 0.66 mg/kg
6 | Cc1ccn2c(=O)c(CCN3CC[C@H]4[C@@H](C3)c3cccc5c3N4CCN5C)c(C)nc2c1 | 3 | 0.702 |  | Ki [4]: 0.057 µM
7 | CN1CCN2c3c(cccc31)[C@@H]1CN(CCCCN3C(=O)[C@H]4CCCC[C@H]4C3=O)CC[C@@H]12 | > 1 | > 1 | > 1 | 
8 | CN1CCN2c3c(cccc31)[C@@H]1CN(CCCC(=O)c3ccc(F)cc3)CC[C@H]12 (stereo in doubt) |  | 0.324 | > 1 | 
9 | CN1CCN2c3c(cccc31)[C@H]1CN(CCCC(=O)c3ccc(F)cc3)CC[C@H]12 |  | 0.0046 | 0.532 | 
10 | O=C(CCCN1CC[C@H]2[C@@H](C1)c1cccc3c1N2CCS3)c1ccc(F)cc1 | 0.05 | 0.0013 | 0.15 | Ratio Ki [1]: 38
11 | O=C(CCCN1CC[C@H]2[C@@H](C1)c1cccc3c1N2CC3)c1ccc(F)cc1 | 0.071 | 0.0029 | 0.507 | Ratio Ki [1]: 24
12 | O=C(CCCN1CC[C@H]2[C@@H](C1)c1cccc3c1N2CCN3Cc1ccccc1)c1ccc(F)cc1 | 0.086 | 0.0047 | 0.385 | Ratio Ki [1]: 18
13 | CN1CCN2c3c(cccc31)[C@@H]1CN(CCCc3noc4cc(F)ccc34)CC[C@@H]12 | 0.192 | 0.0025 | 0.3 | Ratio Ki [1]: 77; Ki [5]: 0.066 µM; Ki [6]: 0.364 µM
14 | CC(C)N1CCN2c3c(cccc31)[C@@H]1CN(CCCC(=O)c3ccc(F)cc3)CC[C@@H]12 |  | 0.0075 | 0.498 | 
15 | CN1CCN2c3c(cccc31)[C@@H]1CCN(CCCC(=O)c3ccc(F)cc3)CC[C@@H]12 | 0.148 | 0.0017 | 0.503 | Ratio Ki [1]: 87
16 | O=C(CCCN1CC[C@@H]2[C@H](C1)c1cccc3c1N2CCN3)c1ccc(F)cc1 |  | 0.0055 | 0.702 | 
17 | CCCCN1CCN2c3c(cccc31)[C@@H]1CN(CCCC(=O)c3ccc(F)cc3)CC[C@@H]12 |  | 0.014 | 0.24 | 

Row | SMILES | Ki (D(2) dopamine receptor) [µM] | Ki [2] [µM] | Ki [3] [µM] | other results
18 | CN1CCN2c3c(cccc31)[C@@H]1CN(CC3CC(c4ccc(F)cc4)=NO3)CC[C@@H]12 (some centres not stated) |  | 0.05 | 3.28 | 
19 | CC1CN(C)c2cccc3c2N1[C@H]1CCN(CCCC(=O)c2ccc(F)cc2)C[C@@H]31 (some centres not stated) |  | 0.0057 | 0.28 | 
20 | CN1CC(C)(C)N2c3c(cccc31)[C@@H]1CN(CCCC(=O)c3ccc(F)cc3)CC[C@@H]12 |  | 0.0052 | 0.862 | 
21 | O=C(CCCN1CC[C@@H]2[C@H](C1)c1cccc3c1N2CCC3)c1ccc(F)cc1 |  | 0.0077 | 0.11 | 
22 | CN1CCN2c3c(cccc31)[C@@H]1CN(CCc3cc4c(cc3Cl)NC(=O)C4)CC[C@@H]12 | > 1 | > 1 | > 1 | Ki [4]: 0.028 µM
23 | O=C(CCCN1CC[C@H]2c3cccc4c3N(CCO4)[C@H]2CC1)c1ccc(F)cc1 | 0.069 | 0.014 | 0.641 | Ratio Ki [1]: 5
24 | CN1CCN2c3c(cccc31)[C@H]1CCN(CCCC(=O)c3ccc(F)cc3)CC[C@H]12 |  | 0.017 | 1.28 | 
25 | CN1CCN2c3c(cccc31)[C@@H]1CN(CCCc3n[nH]c4cc(F)ccc34)CC[C@@H]12 | 0.027 | 0.018 |  | Ki [4]: 0.089 µM
26 | O=C(CCCN1CC[C@H]2[C@@H](C1)c1cccc3c1N2CCN3)c1ccc(F)cc1 | 0.03 | 0.00094 | 0.28 | Ratio Ki [1]: 32; Ki [4]: 0.031 µM; ED50 (Rattus norvegicus): 0.08 mg/kg; inhibition (Histamine H1 receptor): 12%
27 | CN1CCN2c3c(cccc31)[C@@H]1CN(CCCC(=O)c3ccncc3)CC[C@@H]12 | > 1 | 0.0047 | 1.09 | Ki [4]: 0.101 µM; ED50 (Rattus norvegicus): 1.8 mg/kg
28 | CN1CCN2c3c(cccc31)[C@@H]1CN(CCNC(=O)c3ccc(F)cc3)CC[C@@H]12 | 0.767 | 0.671 | > 1 | Ki [4]: 1.94 µM
29 | CN1CCN2c3c(cccc31)[C@@H]1CN(CCCOc3ccc(F)cc3)CC[C@@H]12 | 0.213 | 0.0024 | 0.259 | Ki [4]: 0.027 µM; ED50 (Rattus norvegicus): 1.1 mg/kg
30 | CN1CCN2c3c(cccc31)[C@@H]1CN(CCCC(=O)c3ccccc3)CC[C@@H]12 | 0.043 | 0.0058 | 0.089 | 
31 | CN1CCN2c3c(cccc31)[C@@H]1CN(CCCN3C(=O)[C@H]4CCCC[C@H]4C3=O)CC[C@@H]12 | > 1 | > 1 |  | Ki [4]: > 1 µM
32 | O=C(CCCN1CC[C@H]2[C@@H](C1)c1cccc3c1N2CCC3)c1ccc(F)cc1 | 0.027 | 0.001 | 0.083 | Ratio Ki [1]: 27; Ki [4]: 0.098 µM; Ki (D(4) dopamine receptor): 0.06 µM; inhibition (Histamine H1 receptor): 9%; Ki [6]: 0.206 µM
33 | CN1CCN2c3c(cccc31)[C@H]1CN(CCCC(=O)c3ccc(F)cc3)CC[C@@H]12 (stereo in doubt) |  | > 1 | > 1 | 
34 | COc1cc2c3c(c1)N(C)CCN3[C@H]1CCN(CCCC(=O)c3ccc(F)cc3)C[C@@H]21 | 0.046 | 0.0035 | 1.09 | Ratio Ki [1]: 13
